Data on 13 compounds can be found in patent US20230131993A1 (priority 2020, published 2023).

Where two headings read alike, the source gives them in different places.

One data set deals with mast cell. The following applies: through the interaction with the neurokinin-1 receptor; cited from earlier work.
For data set [1] the following is noted: during storage; cited from earlier work.
The nature of data set [2]: Color stability of DragoCalm before and after Oxipres treatment (L*a*b* system, Δb*). The data set is classed as physicochemical. Set-up: key: L*a*b* Δb* = b* change before vs after Oxipres; higher = more discolored. As to conditions: color difference before/after Oxipres treatment. As to the method:
(i.e. hydroxyacetophenone).
Furthermore, the color of the DragoCalm® samples was measured before and after the Oxipres treatment by using the L*a*b* system (Lico 690). The b* value describes the discoloration in the yellowish/red/brownish area, the Δ b* value describes the difference of color before and after Oxipres treatment. The higher the Δ b* value the more discolorated is the test solution.

Data set [3] can be described thus: Oxipres accelerated stability test of DragoCalm: Avenanthramide C content by HPLC before and after treatment. The following applies: for Degradation (%) of Avenanthramide C: DragoCalm, Oxipres 5 bars oxygen, 24 hours, 70° C.; for degradation inhibitory activity, ranking of single stabilizers: as demonstrated by the examples.
Description: The oxidative stability of the glycerol/water-based solution of an DragoCalm® extract as described below with different stabilizer was evaluated against a glycerol/water-based solution of an oat extract without stabilizer.
The Oxipres device allows the determination of oxidative resistance (shelf life) of oils. The device is a modification of the bomb method according to ASTM D941, which is based on oxidation with oxygen. The test runs under elevated pressure and temperature, through which the degradation process is accelerated. During the test, the consumption of oxygen results in a pressure drop in the vessel. Decrease of pressure indicates more consumption of oxygen and higher oxidation of the test product.
Thus, it is an accelerated stability test due to harder conditions such as temperature and pressure.
(§1) Stabilizers were presolved in DragoCalm® under stirring at room temperature or, if necessary at a temperature from 40 to 50° C. […] The DragoCalm® samples (15 g) were placed into the reaction vessel and were either exposed to 5 bars of oxygen for 24 hours at 70° C. using the Oxipres device.
(§2) The evaluation of the samples, i.e. the determination of content of Avns was determined by HPLC (comparison before and after Oxipres treatment).
The content of Avenanthramide C was determined by HPLC before and after Oxipres treatment.
Data set [4] can be described thus: Oxipres stability test of DragoCalm: Avenanthramide L. The following applies: before and after Oxipres treatment.
Description: as §1, §2
(§3) The test procedure and the evaluation of the samples were carried out in the same manner as described above for Avenanthramide C.
Data set [5] is described as follows: Oxipres stability test of DragoCalm: Avenanthramide B. The following applies: before and after Oxipres treatment, additive 0.1 %.
Description: as §1, §2, §3
For data set [6] the following is noted: 24 h, 0.1 %.
Description: as §1, §2, §3
Where [7] appears, read: in DragoCalm after Oxipres treatment (5 bars oxygen, 24 hours, 70° C.), additive 0.10 %.
[8] abbreviates: in DragoCalm before Oxipres treatment, additive 0.10 %.
Where [9] appears, read: in DragoCalm after Oxipres treatment (5 bars oxygen, 24 hours, 70° C.), additive 0.05 %.
Where [10] appears, read: in DragoCalm before Oxipres treatment, additive 0.05 %.

With `O=C(CCc1ccc(O)cc1)Nc1ccccc1C(=O)O` [Dihydroavenanthramide D, 2-{[3-(4-Hydroxyphenyl)propanoyl]amino}benzoic acid], the “mast cell degranulation” value in the data set with mast cell is given as “inhibits mast cell degranulation”. Also, in data set [1], the “stability (known, words)” value is given as “more stable in comparison to Avenanthramide C”.

As for `O=C([O-])CC[C@@H](C(=O)[O-])N(CC(=O)[O-])CC(=O)[O-].[Na+].[Na+].[Na+].[Na+]` [Tetrasodium Glutamate Diacetate], the “Δb*” value in data set [2] (additive 0.10 %) is on record as 7.8. Further, the “Avenanthramide C End (ppm)” value in data set [3] (setting [7]) amounted to 1 ppm. The “Avenanthramide C Start (ppm)” value in data set [3] (setting [8]) stood at 13 ppm.

As for `CC(C(=O)[O-])N(CC(=O)[O-])CC(=O)[O-].[Na+].[Na+].[Na+]` (stereo not shown) [Trisodium MGDA, trisodium methylglycinediacetic acid], in data set [4] (additive 0.2 %), the “Degradation of Avenanthramide L (%)” value came out at 20.0%.

`CC(=O)c1ccc(O)cc1` [4-Hydroxyacetophenone]: the “Degradation of Avenanthramide B (%)” value in data set [5] was 18.5%. The “Δb*” value in data set [2] (additive 0.10 %) is given as 7.3. Moreover, the “Degradation (%) of Avenanthramide C” value in data set [3] (additive 0.10 %) is recorded as 94.4%. Further, the “Avenanthramide C End (ppm)” value in data set [3] (setting [7]) was 1 ppm. Moreover, in data set [3] (setting [8]), the “Avenanthramide C Start (ppm)” value was found to be 18 ppm.

Turning to Trisodium Ethylenediamine Disuccinate, the “Degradation of Avenanthramide B (%)” value in data set [5] turned out to be 7.4%. For the same compound, the “Δb*” value in data set [2] (additive 0.10 %) is given as 7.0. The “Degradation (%) of Avenanthramide C” value in data set [3] (additive 0.10 %) is 66.7%. Besides, the “Avenanthramide C End (ppm)” value in data set [3] (setting [7]) was 3 ppm. For the same compound, the “Avenanthramide C Start (ppm)” value in data set [3] (setting [8]) was 9 ppm. Moreover, the “Degradation of Avenanthramide L (%)” value in data set [4] (additive 0.10 %) was 0%.

Turning to `O=C(C=Cc1ccc(O)c(O)c1)Nc1ccc(O)cc1C(=O)O` [Avenanthramide C, N-(3′-4′-dihydroxycinnamoyl)-5-hydroxyanthranilic acid], the “stability (known, words)” value in data set [1] is listed as “low stability”.

In the case of `O=P(O)(O)O[C@H]1[C@H](OP(=O)(O)O)[C@@H](OP(=O)(O)O)[C@H](OP(=O)(O)O)[C@@H](OP(=O)(O)O)[C@H]1OP(=O)(O)O` [Phytic Acid], the “Δb*” value in data set [2] (additive 0.10 %) is recorded as 8.2. Besides, in data set [6], the “Degradation of Avenanthramide L (%)” value turned out to be 20.0%. In addition, the “Avenanthramide C End (ppm)” value in data set [3] (setting [7]) came out at 2 ppm. In addition, the “Avenanthramide C Start (ppm)” value in data set [3] (setting [8]) stood at 14 ppm.

`O=C(O)CC(O)(CC(=O)O)C(=O)O` [Citric acid]: the “Δb*” value is recorded as 6.5 in data set [2] (additive 0.05 %) and 8.2 in data set [2] (additive 0.10 %). In addition, the “Avenanthramide C End (ppm)” value in data set [3] (setting [9]) and in data set [3] (setting [7]) was 1 ppm each time. The “Avenanthramide C Start (ppm)” value in data set [3] (setting [10]) was determined as 26 ppm; in data set [3] (setting [8]) it was 18 ppm.

As to `O=C(O)C(O)C(O)C(=O)O` (stereo not shown) [Tartaric acid], in data set [2] (additive 0.10 %), the “Δb*” value is recorded as 9.4. Besides, the “degradation inhibitory activity, ranking of single stabilizers” value (from here on “degradation inhibitory activity, ranking”) in data set [3] is reported as “most single effective alpha hydroxy acids”. Moreover, in data set [3] (setting [7]), the “Avenanthramide C End (ppm)” value worked out at 1 ppm. In data set [3] (setting [8]), the “Avenanthramide C Start (ppm)” value was found to be 11 ppm.

With `O=C1O[C@H]([C@@H](O)CO)C(O)=C1O` [Ascorbic acid], the “Δb*” value in data set [2] (additive 0.05 %) amounted to 8.2. In addition, in data set [3], the “degradation inhibitory activity, ranking” value is on record as “most effective single antioxidant”. In data set [3] (setting [9]), the “Avenanthramide C End (ppm)” value stood at 3 ppm. The “Avenanthramide C Start (ppm)” value in data set [3] (setting [10]) turned out to be 16 ppm.

On to `O=C(O)CC(O)C(=O)O` (stereo not shown) [Malic acid], for which the “Δb*” value in data set [2] (additive 0.10 %) amounted to 8.3. For the same compound, the “degradation inhibitory activity, ranking” value in data set [3] was “most single effective alpha hydroxy acids”. Further, the “Avenanthramide C End (ppm)” value in data set [3] (setting [7]) was determined as 1 ppm. The “Avenanthramide C Start (ppm)” value in data set [3] (setting [8]) is 11 ppm.

For the compound `O=C([O-])CN(CCN(CC(=O)[O-])CC(=O)O)CC(=O)O.[Na+].[Na+]` [Disodium EDTA], in data set [2] (additive 0.10 %), the “Δb*” value came out at 5.0. Moreover, in data set [3], the “Avenanthramide C End (ppm)” value was found to be 9 ppm and the “Avenanthramide C Start (ppm)” value is listed as 16 ppm.

With `CC(O)C(=O)O` (stereo not shown) [Lactic acid], the “Δb*” value in data set [2] (additive 0.10 %) is 8.4. The “Avenanthramide C End (ppm)” value in data set [3] (setting [7]) was found to be 1 ppm. Besides, the “Avenanthramide C Start (ppm)” value in data set [3] (setting [8]) was 12 ppm.
